As usually defined, the Kd is the concentration at which binding is half-saturated. By stoichiometry N is commonly meant a count of units in the complex or per binding partner.

In one experiment the target is T1, BTA121 (Borrelia turicatae, UniProt A0A0R9P931).
T1 construct: signal peptide and further N-terminal residues removed, putative PARP domain kept; N-terminal dodeca-His tag cut with TEV protease; E. coli BL21-CodonPlus(DE3)-RIPL; predominantly monomer, some dimer
Description: radioligand binding, Q-sepharose separation, scintillation counting. From the text: radioligand binding, Q-sepharose separation, scintillation counting on BTA121 | BTA121 binds palmitate with micromolar Kd

Experiment [1] deals with Recombinant BTA121 (Borrelia turicatae), dodeca-His tag cleaved (Borrelia turicatae). Briefly: SEC; Phenomenex Yarra 3 µ SEC-2000 HPLC column, 1.0 mg/mL, 50 µg loaded, room temperature, 0.5 mL/min; molecular weight estimated with Bio-rad gel filtration standard.

In turn, `CCCCCCCCCCCCCCCC(=O)O` [palmitate] had a Kd on BTA121 of 229 µM. Turning to “Recombinant BTA121 (Borrelia turicatae), dodeca-His tag cleaved (from UniProt A0A0R9P931 1-445) (natural protein)”, the stoichiometry N in experiment [1] is 2.

The values above are taken from paper PMC5681642.
